Experiment in all cases: NCI tumour cell line growth inhibition, 48 h
In test [1] the test system is HT-29.
For test [2], the system named is COLO 205.
Test [3] has as its system SK-MEL-5.
For test [4], the system named is HL-60.
The subject of test [5] is SR.
Test [6] has as its system RPMI-8226.
Test [7] has as its system KM12.
The subject of test [8] is BT-549.
In test [9] the test system is IGROV-1.
In test [10] the test system is DU-145.
Test [11] has as its system MDA-MB-435.
Test [12] concerns PC-3.
Test [13] has as its system Hs-578T.
The test system of test [14] is SK-MEL-28.
The subject of test [15] is OVCAR-4.
The test system of test [16] is RXF 393.
In test [17] the test system is SF-268.
The subject of test [18] is OVCAR-5.
Test [19] has as its system HOP-92.
Test [20] has as its system A498.

These results are taken from ChEMBL document CHEMBL1201862, “PubChem BioAssay data set” (2004).

Structures are written as SMILES.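 Five concentrations, 48 hours, 96-well plates. GI50 = concentration required for 50% inhibition of growth.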 Activity calls are given as the source filed them. Cut-off read from the data, not from the text of the source: active = GI50 up to about 1.1 µM and inactive = higher.

For the molecule `O=C(c1ccccc1)n1[nH]c(=O)n(-c2ccc(Cl)cc2)c1=O`, the GI50 in test [1], in test [2], in test [3], in test [4], in [5] and in test [6] was > 100 µM (inactive) each time. Moreover, the GI50 in test [7], in [8], in test [9], in test [10], in test [11] and in [12] was > 100 µM (inactive) each time. Moreover, the GI50 in [13], in [14], in [15], in test [16], in test [17] and in [18] was > 100 µM (inactive) in each case.
With `CSC(SC)=C1C(=O)NN=C1C`, the GI50 in test [1], in [2], in [3], in [4], in test [5] and in [6] was > 100 µM (inactive) each time. Besides, the GI50 in [7], in test [8], in [9], in test [10], in test [11] and in [12] was > 100 µM (inactive) throughout. Also, the GI50 in [13] is > 100 µM (inactive); in test [14], > 100 µM (inactive); in [15] it was > 100 µM (inactive); in [19], 35.1 µM (inactive); in test [16] it was > 100 µM (inactive); in [17], > 100 µM (inactive). The GI50 in test [18] was > 100 µM (inactive).
With `CC(=O)OCC1OC(n2c(-c3ccccc3)c(/N=N/c3ccccc3)c(C)c(C#N)c2=S)C(OC(C)=O)C(OC(C)=O)C1OC(C)=O` (centres undefined), the GI50 in [1], in test [2], in [3], in test [4], in test [5] and in test [6] was > 100 µM (inactive) throughout. Also, the GI50 in [7], in test [8], in test [9], in test [10], in test [11] and in test [12] was > 100 µM (inactive) throughout. Moreover, the GI50 was > 100 µM (inactive) in test [13]; > 100 µM (inactive) in test [14]; > 100 µM (inactive) in test [15]; 28.4 µM (inactive) in test [19]; > 100 µM (inactive) in test [16]; > 100 µM (inactive) in [17]. For the same molecule, the GI50 in [18] was > 100 µM (inactive).
With `Cc1cc(Cl)ccc1NC(=O)/C(Cl)=C(/Cl)C(=O)O`, the GI50 in test [1] was 22.9 µM (inactive); in test [2], 28.4 µM (inactive); in test [3], 50.7 µM (inactive); in test [4] it was 25.7 µM (inactive); in test [5], 15.1 µM (inactive); in [6], 24 µM (inactive). In addition, the GI50 in [7] is 31 µM (inactive); in [8], 19.1 µM (inactive); in [10], 23.9 µM (inactive); in test [11], 20.6 µM (inactive); in test [12], 21.4 µM (inactive); in [13], 26.4 µM (inactive). Also, the GI50 is 22.1 µM (inactive) in [14]; 22.1 µM (inactive) in [19]; 19.6 µM (inactive) in [16]; 52.8 µM (inactive) in [17]; 19.5 µM (inactive) in test [18].
Consider `Cc1cc2c(c(S(=O)(=O)c3ccccc3[N+](=O)[O-])c1)NCCC2`, for which the GI50 in [1] is > 100 µM (inactive); in test [2] it was > 100 µM (inactive); in [3] it was 18.7 µM (inactive); in test [4], 26.2 µM (inactive); in [5], > 100 µM (inactive); in test [6] it was 85.3 µM (inactive). For the same molecule, the GI50 was 63.8 µM (inactive) in test [7]; 19.1 µM (inactive) in [8]; 95.7 µM (inactive) in [9]; 77.1 µM (inactive) in [10]; 25.6 µM (inactive) in test [11]; 27.9 µM (inactive) in test [12]. The GI50 is > 100 µM (inactive) in [13]; 54 µM (inactive) in test [14]; 23.5 µM (inactive) in [15]; > 100 µM (inactive) in test [20]; > 100 µM (inactive) in test [16]; 83.6 µM (inactive) in [17]. Moreover, the GI50 in [18] was > 100 µM (inactive).
On to `O=C1NC(c2c(Cl)cccc2Cl)Nc2ccccc21` (centres undefined), for which the GI50 in [1] is 28.1 µM (inactive); in test [2], 49.4 µM (inactive); in test [3], 27 µM (inactive); in [4] it was 18 µM (inactive); in test [6], 50.5 µM (inactive); in test [7] it was 16.4 µM (inactive). For the same molecule, the GI50 was 60 µM (inactive) in [8]; 21.2 µM (inactive) in test [9]; 29.2 µM (inactive) in test [10]; 14.1 µM (inactive) in [11]; 71.1 µM (inactive) in test [12]; 19.6 µM (inactive) in [13]. Also, the GI50 was 73.3 µM (inactive) in [14]; > 100 µM (inactive) in [15]; 85.7 µM (inactive) in [20]; 25.4 µM (inactive) in [19]; 70 µM (inactive) in test [16]; 54.5 µM (inactive) in test [17]. The GI50 in test [18] was 94.4 µM (inactive).
Turning to `O=C1C=Cc2cscc21`, the GI50 in test [1] was 35.5 µM (inactive); in [2], 47.4 µM (inactive); in [3], 81.7 µM (inactive); in test [4], 29 µM (inactive); in [6], 20.4 µM (inactive); in [7], 71.4 µM (inactive). Moreover, the GI50 in test [8] is 53.7 µM (inactive); in test [9], 32.4 µM (inactive); in [10], 34.3 µM (inactive); in [11], 48.5 µM (inactive); in test [12] it was 42 µM (inactive); in test [13], > 100 µM (inactive). Also, the GI50 was 69.8 µM (inactive) in test [14]; 81.3 µM (inactive) in test [15]; > 100 µM (inactive) in [20]; > 100 µM (inactive) in test [19]; 16.6 µM (inactive) in test [16]; 92.5 µM (inactive) in test [17].
Regarding `Nc1nc(Cl)c(N)c(NCC2(CO)CCC(CCc3ccccc3)C2)n1` (centres undefined), the GI50 in [1] is 13.3 µM (inactive); in [2], 9.93 µM (inactive); in test [3] it was 0.033 µM (active); in test [4], 3.37 µM (inactive); in test [6], 14.3 µM (inactive); in [7] it was 13.4 µM (inactive). Further, the GI50 in test [8] was 11.1 µM (inactive); in [9], 22.8 µM (inactive); in test [10], 21.4 µM (inactive); in [11], 12.8 µM (inactive); in test [12], 17.3 µM (inactive); in [13], 21.1 µM (inactive). Besides, the GI50 was 14.6 µM (inactive) in test [14]; 17.3 µM (inactive) in test [15]; 14.6 µM (inactive) in test [20]; 19.3 µM (inactive) in [19]; 17.4 µM (inactive) in [16]; 15.8 µM (inactive) in test [17]. The GI50 in test [18] is 20.9 µM (inactive).
For `O=C1c2cc3c(cc2CC12Cc1cc4c(cc1C2=O)CCC4)CCC3`, the GI50 in test [1], in test [2], in test [3], in test [4], in test [5] and in test [6] was > 100 µM (inactive) throughout. Further, the GI50 in [7], in test [8], in test [9], in test [10], in [11] and in test [12] was > 100 µM (inactive) throughout. In addition, the GI50 in [13] was > 100 µM (inactive); in test [14] it was > 100 µM (inactive); in test [20], > 100 µM (inactive); in test [16], 21.8 µM (inactive); in test [17] it was > 100 µM (inactive); in test [18] it was 48.3 µM (inactive).
As to `CC(C(=O)c1ccncc1)c1ccccn1` (centres undefined), the GI50 in test [1], in test [2], in test [3], in [4], in test [6] and in test [7] was > 100 µM (inactive) in each case. Further, the GI50 in test [8], in test [9], in test [10], in test [11], in [12] and in [13] was > 100 µM (inactive) each time. The GI50 in [14], in test [15], in test [20], in test [19], in test [16] and in test [17] was > 100 µM (inactive) throughout. Further, in test [18], the GI50 was > 100 µM (inactive).
Regarding `NCCNCCCCCCNC(=O)c1cccc2cc3ccccc3nc12`, the GI50 in [1] was 1.59 µM (inactive); in [2] it was 2.75 µM (inactive); in test [3], 3.61 µM (inactive); in test [4], 1.39 µM (inactive); in test [6] it was 2.01 µM (inactive); in test [7], 2 µM (inactive). Besides, the GI50 in [8] was 11.4 µM (inactive); in test [9], 3.9 µM (inactive); in [10], 0.632 µM (active); in test [11], 3.59 µM (inactive); in [12] it was 2.99 µM (inactive); in test [13], 1.88 µM (inactive). Moreover, the GI50 in test [14] was 5.65 µM (inactive); in test [15], 2.02 µM (inactive); in test [20] it was 2.43 µM (inactive); in test [19], 2.24 µM (inactive); in test [16] it was 3.95 µM (inactive); in test [17] it was 2.72 µM (inactive). Moreover, the GI50 in test [18] is 4.02 µM (inactive).
